Experimental data: patent publication US4562196A, “2,4-Diaminopyridine as a pharmacologic agent” (Nelson Research & Development, priority 1984, dated 1985)

Columns and labels:
[1] = system: neuromuscular block by pancuronium bromide (sciatic nerve-anterior tibialis); test: Rat sciatic nerve-anterior tibialis preparation: antagonism of neuromuscular block in vivo; parameters: species or system Rats; conditions: for ED50: Rattus norvegicus, iv, 10 min, read-out: ED50 (dose of drug producing a 50% antagonism), constant pancuronium infusion, 90-95% depression of twitch tension, cumulative dosing, 10 min interval
Procedure: This preparation is used to test the antagonistic action of aminopyridines against neuromuscular blocking agents in vivo. (Miller, Denissen, van der Pol, Agoston, Booy and Crul, J. Pharm. Pharmacol. 30, 699 (1978)).
Rats were administered a constant infusion of pancuronium bromide and when a constant block was achieved, one of the aminopyridines was administered. The ED50 's (dose of drug producing a 50% antagonism) were determined.
Rats (280-320 g) were anaesthetized with pentobarbital. Both jugular veins were cannulated for administration of drugs. A caratoid artery was cannulated for measurement and recording of arterial blood pressure. The trachea was intubated and ventilation controlled by means of a Braun air pump. The tendon of the left tibialist was freed, sectioned and connected to a force displacement transducer. The sciatic nerve was stimulated by supramaximal 0.1 Hz stimuli of 0.2 msec duration through a bipolar electrode. Twitch tension was recorded on a polygraph. The temperature of the rat was maintained at 37° C. with heating lamps. Pancuronium bromide was administered intravenously by continuous infusion until 90-95% depression of twitch tension was obtained. This infusion speed was maintained during the whole experiment. When the block was steady for at least 15 min one of the drugs was given cumulatively with 10 min interval.

central nervous system = conditions: in vivo; cited from earlier work
mice [2] = test: Acute toxicity (LD50), intraperitoneal, mice; type: in vivo; conditions: from LD50 values
Procedure: Moreover, the LD50 values for intraperotoneal 4-AP and 3,4-DAP in mice are 10 mg./kg. and 20 mg./kg., respectively (Vohra, et al. J. Med. Chem 8, 296-304 (1965)). The LD50 dosage corresponds to a lethal dose in 50% of the animals treated. Thus, although not as toxic as 4-AP, 3,4-DAP suffers from the similar disadvantage of high toxicity at dosage levels near those that would be used in therapy.

[3] = system: neuromuscular transmission blocked with pancuronium bromide (rat phrenic nerve-hemidiaphragm); test: Rat hemidiaphragm: antagonism of pancuronium blockade in vitro; parameters: species or system male Wistar rats; conditions: for EC50: 90% block by pancuronium bromide about 8×10^-6 M, 37° C., cumulative addition, read-out: EC50 (concentration that produces a 50% antagonism)
Procedure: Left hemidiaphragms with their phrenic nerves were removed from male Wistar rats weighing 280-320 g. and were mounted in an organ bath, containing Krebs solution, maintained at 37° C. and gassed with oxygen containing 5% CO2. The nerve was stimulated at a frequency of 0.1 Hz via electrodes with rectangular pulses of 0.3 ms duration and of a strength greater than that required to reproduce maximal twitch.

[4] = in vitro; vs 4-AP; cited from earlier work
mice [5] = conditions: i.p., Vohra et al., J. Med. Chem. 8, 296 (1965); cited from earlier work
[6] = 4-AP compared with 3,4-DAP; cited from earlier work
rat heart = test: Isolated heart of the rat: positive inotropic action; parameters: species or system male Wistar rats; conditions: for changes in frequency or E.C.G.: same perfusion as L.V.P.
Procedure: This preparation evaluates the positive inotropic action of a drug (Koomen, van Gilst, Zimmerman and Noordwijk, Arch. Int. Pharmacodyn. Ther. 255, 212 (1982)).
Solutions of the aminopyridines were added to the perfusion solution of the rat heart. The left ventricular pressure (L.V.P.) was recorded in order to evalute the positive inotropic action. Frequency and E.C.G. were also monitored. Male Wistar rats (270-300 g) were anaesthetized with diethyl ether. After heparinization the hearts were quickly removed. Subsequently the heart was perfused according to the method of Langendorff. The perfusion fluid contained: NaCl 128 mM; KCl 4.7 mM; CaCl2 1.35 mM; MgCl2 1.05 mM; NaHPO4 0.42 mM; NaHCO3 20.2 mM; glucose 11.1 mM. The pH of the perfusion fluid after aeration with 95% O2 --5% CO2 was 7.35±0.05 (37° C.). L.V.P. was measured by means of a catheter inserted in the left ventricule and connected to a pressure transducer. A biopolar E.C.G. was obtained by means of two silver electrodes: one attached to the metal inflow cannula and the other to the ventricular apex. Coronary flow (volume of perfusion fluid per time unit) was measured by a microprocessor, which controlled the perfusion pressure by adjusting the peristaltic perfusion pump.

[7] = system: neuromuscular blocking drugs; conditions: with neostigmine and pyridostigmine; cited from earlier work
[8] = system: potassium channel in axonal membranes; conditions: cited from earlier work
guinea-pig ileum = test: Ileum of the guinea pig: activity on smooth muscle; conditions: for pD2 (negative logarithm of the dose required to produce 50% of the maximum response): compared to maximal contraction by 2×10^-7 M carbochol, 37° C.
Procedure: This preparation tests the pharmacological activity on smooth muscle (Moritoki, Takei, Makomoto and Ishida, Arch. Int. Pharmacodyn. Ther. 232, 28 (1978).
The […] of the ileum was measured. This is compared to the maximal contraction caused by carbochol. From dose response curves the following pD2 values were determined (the pD2 value is the negative logarithm of the dose required to produce 50% of the maximum response).
Segments of guinea-pig ileum of 3 to 4 cm. length from 10 cm above the ileocaecal junction were used. The oral end of each segment was fixed to a hook and the distal end was connected to an isotonic transducer with a 1 g counterweight. The preparation was then immersed to an organ bath (25 ml) at 37° C. containing Krebs solution and bubbled with oxygen containing 5% CO2. After an equilibration time of about 1 hour, 2×10^-7 M carbochol was added to the bath for maximal contraction. After wash out (2×) the drugs were added cumulatively to the bath.

[9] = system: ketamine-xylazine narcosis; test: Antagonism of ketamine-xylazine narcosis (central effects); type: in vivo, Rats
Procedure: This is a method of testing the central effects of the aminopyridines.
Rats were anaesthetized with xylazine (0.05 ml of a 2% soln, s.c.) and ketamine (0.1 ml of a soln, i.p.). After 10 min. the aminopyridines (1 mg./kg) were administered, i.v. The time required for "full recovery" (i.e. turning over and crawling) was measured. Groups of 10 rats were used for each treatment.

SMILES | ED50 [1] | convulsions, central adverse effects (central nervous system) | toxicity relative to 2,4-DAP (mice [2]) | EC50 [3] | LD50 (mice [5]) | action in vivo [6] | changes in frequency or E.C.G. (rat heart) | pD2 (negative logarithm of the dose required to produce 50% of the maximum response) (guinea-pig ileum) | other results
Nc1ccncc1N [3,4-Diaminopyridine, 3,4-diaminopyridine] | 0.25 mg/kg | tendency to cause convulsions | an order of magnitude more toxic than the compound of the present invention | 10 µM | 20 mg/kg | almost the same | – | – | peripheral and central action relative to 4-AP [4]: stronger peripheral action and less central action than 4-AP in vitro
Nc1ccncc1 [4-Aminopyridine, 4-aminopyridine] | 0.45 mg/kg | hypertension and convulsions at dosage levels only slightly exceeding the clinical dosage | an order of magnitude more toxic than the compound of the present invention | 55 µM | 10 mg/kg | almost the same | No changes in frequency or E.C.G. were noted | 4.30 | increase of left ventricular pressure (L.V.P.) (rat heart; 2×10^-5 to 1×10^-4 mol/l): up to 40%; potentiation of anticholinesterase drugs [7]: potentiates anticholinesterase drugs; potassium channel blocking action [8]: potassium channel blocking action in axonal membranes
Nc1ccnc(N)c1 [2,4-Diaminopyridine, 2,4-diaminopyridine] | 0.14 mg/kg | has not been shown to cause convulsions | – | 15 µM | – | – | No changes in frequency or E.C.G. were noted | 4.52 | potency relative to 3,4-diaminopyridine ([1]; vs 3,4-diaminopyridine): about twice as potent as 3,4-diaminopyridine; potency relative to 4-aminopyridine ([1]; vs 4-aminopyridine): about 3 times more potent; increase of left ventricular pressure (L.V.P.) (rat heart; 5×10^-6 mol/l to 10^-4 mol/l): up to 50%; effectiveness relative to 4-aminopyridine (rat heart; vs 4-aminopyridine): significantly more effective than 4-aminopyridine; recovery compared with saline controls ([9]; 1 mg./kg, vs saline controls): did not differ significantly from controls receiving saline; central actions relative to 3,4-diaminopyridine ([9]; vs 3,4-diaminopyridine): somewhat weaker than those of 3,4-diaminopyridine; central actions relative to 4-aminopyridine ([9]; vs 4-aminopyridine): much weaker than those of 4-aminopyridine; potency relative to 3,4-diaminopyridine ([3]; vs 3,4-diaminopyridine): about the same potency as 3,4-diaminopyridine; potency relative to 4-aminopyridine ([3]; vs 4-aminopyridine): about 3.5 times more potent; potency relative to 4-aminopyridine (guinea-pig ileum; vs 4-aminopyridine): slightly more potent than 4-aminopyridine
